This note sets out measurements from patent US20260200926A1, “TREM2 MODULATORS” (Muna Therapeutics ApS, priority 2022, published 2026).

Each structure is given as a SMILES string. Read-outs that look alike come from different tables or passages of the source. Some results are limits rather than exact numbers.

Experiment [1] addresses T1, Human TREM2 (Homo sapiens, UniProt Q9NZC2).
T1 construct: expressed in transfected cells
The experiment is described as follows: Human TREM2 activity: cellular phosphorylation of Syk (AlphaLISA SureFire Ultra p-SYK) in HEK293/DAP12+TREM2 stable cell line. The experiment is classed as cell-based. The settings on record: for Emax: HEK293; for EC50: phospho-Syk AlphaLISA signal, HEK293/DAP12+TREM2 cells, concentration giving 50% of maximal response, read-out: EC50. The method in brief:
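HEK293 cells stably co-expressing human TREM2 and DAP12 were seeded at 10,000 cells/well and used 20–24 h later. Compounds were tested at 8 concentrations (top 100 μM, 1:6 steps, 0.5% DMSO) for 30 min at 37 °C. Syk phosphorylation at Tyr525/526 was read in lysates by AlphaLISA SureFire Ultra.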

For experiment [2], the system named is TREM2 regulated genes CXCL10, CCL2, CST7, and TMEM119. The experiment is described as follows: Pharmacodynamics in hTREM2 knock-in mice: brain mRNA expression of TREM2 regulated genes by RT-qPCR. It is filed as in vivo, humanized TREM2 knockin (hTREM2 KI) mice, C57BL/6 background. The following applies: hTREM2 KI mice, oral gavage 50 mg/kg twice a day with a 10-hour interval, brains after 24 hours, RT-qPCR relative to GAPDH, normalized to vehicle. The protocol: Humanized TREM2 knockin (hTREM2 KI) mice were used for pharmacodynamics and pharmacokinetics studies. hTREM2 mice were generated by replacement of the mouse TREM2 gene that encodes the full-length protein by the human TREM2 gene in a C57BL/6 mouse strain background. Groups of 10 animals 8-10-week-old hTREM2 mice were treated via oral gavage administration with a TREM2 agonist compound at 50 mg/kg twice a day with a 10-hour interval. After 24 hours, mice were sacrificed and brains were isolated for RNA extraction used for reverse transcription to create complementary DNAs (cDNAs). The relative mRNA expression level of known TREM2 regulated genes were measured by quantitative reverse transcription polymerase chain reaction (RT-qPCR) relative to Glyceraldehyde-3-phosphate dehydrogenase (GAPDH) reference housekeeping gene. Expression of TREM2 regulated genes CXCL10, CCL2, CST7, and TMEM119 were measured as pharmacodynamic biomarkers after TREM2 agonist treatment normalized to vehicle control. These genes are known as microglial activation biomarkers and have previously been reported to respond to TREM2 antibody and small molecule agonist treatment in vivo.
Statistical Analyses. All graphs represent the mean of all samples in each group±SEM.
GraphPad Prism software was used to perform statistical analyses. P<0.05 was considered significant difference between vehicle and TREM2 small molecule treatment determined by T-test.
The relative expression levels for Compound 89A and vehicle were measured.

Setting [3] is: maximal response relative to reference agonist example 1B (remaining examples), read-out: Emax.

T1 sequence (Q9NZC2 19-230): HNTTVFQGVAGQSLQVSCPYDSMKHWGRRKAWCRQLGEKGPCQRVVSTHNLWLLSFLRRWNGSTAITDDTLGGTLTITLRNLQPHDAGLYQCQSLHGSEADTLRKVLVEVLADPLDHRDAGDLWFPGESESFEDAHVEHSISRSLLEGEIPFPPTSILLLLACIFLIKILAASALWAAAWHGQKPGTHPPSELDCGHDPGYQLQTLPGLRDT
T1 sequence (O43914 22-113 partner): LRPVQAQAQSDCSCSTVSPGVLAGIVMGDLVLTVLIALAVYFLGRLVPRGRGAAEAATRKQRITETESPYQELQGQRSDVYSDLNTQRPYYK

Turning to `Cc1nc2c(-c3ccc(Cl)cc3F)nc(N3C[C@@H](c4cnn(C)c4)OC(C)(C)C3)nc2c(=O)n1C` (single isomer, unassigned) [Example 89A], in experiment [1] (setting [3]), the Emax was 75 to 110%. Moreover, in experiment [1], the concentration for a half-maximal effect (EC50) fell in the range of 10 to 100 nM. In experiment [2], the “brain expression level of CCL2 as compared to vehicle control” value is reported as 1.7 fold, the “brain expression level of CST7 as compared to vehicle control” value is reported as 3.25 fold, the “brain expression level of CXCL10 as compared to vehicle control” value is reported as “about 2.5 fold” and the “brain expression level of TMEM119 as compared to vehicle control” value is reported as 1.8 fold.

As for `Cc1nc2c(C34CC(C(F)(F)F)(C3)C4)nc(N3CCO[C@@H](c4cnn(C)c4)C3)nc2c(=O)n1C` [Example 113, (S)-2,3-dimethyl-6-(2-(1-methyl-1H-pyrazol-4-yl)morpholino)-8-(3-(trifluoromethyl)bicyclo[1.1.1]pentan-1-yl)pyrimido[5,4-d]pyrimidin-4 (3H)-one], the Emax in experiment [1] (setting [3]) was 75 to 110%. Besides, the half-maximal effective concentration (EC50) in experiment [1] was 1 to 10 nM.

For the compound `Cc1nc2c(-c3ccc(Cl)cc3F)nc(N3CCO[C@H](c4cnn(C(F)(F)F)c4)C3)nc2c(=O)n1C` (single isomer, unassigned) [Example 107A], the Emax in experiment [1] (setting [3]) is 75 to 110%. Further, the EC50 in experiment [1] fell in the range of 10 to 100 nM.

Turning to `Cc1nc2c(-c3ccc(Cl)cc3F)nc(N3CCC[C@@H](Oc4cnn(C)c4)C3)nc2c(=O)n1C` [Example 76, (R)-8-(4-chloro-2-fluorophenyl)-2,3-dimethyl-6-(3-((1-methyl-1H-pyrazol-4-yl)oxy)piperidin-1-yl)pyrimido[5,4-d]pyrimidin-4 (3H)-one], in experiment [1] (setting [3]), the Emax is 75 to 110%. Moreover, the EC50 in experiment [1] is 100 to 1000 nM.

`Cc1cc([C@H]2CN(c3nc(-c4cc(F)c(F)cc4F)c4nc(C)n(C)c(=O)c4n3)CCO2)ccn1` (single isomer, unassigned) [Example 123B]: the Emax in experiment [1] (setting [3]) was 75 to 110%. In addition, the EC50 in experiment [1] was 10 to 100 nM.

On to `Cc1nc2c(-c3ccc(Cl)cc3F)cc(N3CCOC(c4cnn(C)c4)C3)nc2c(=O)n1C` (stereo not drawn) [Example 104, 8-(4-chloro-2-fluorophenyl)-2,3-dimethyl-6-(2-(1-methyl-1H-pyrazol-4-yl)morpholino)pyrido[3,2-d]pyrimidin-4 (3H)-one], for which the Emax in experiment [1] (setting [3]) is 75 to 110%. Besides, in experiment [1], the EC50 is 100 to 1000 nM.

For `Cc1nc2c(-c3ccc(Cl)cc3F)nc(N3CCOC(c4ccnn4C)C3)nc2c(=O)n1C` (stereo not drawn) [Example 44, 8-(4-chloro-2-fluorophenyl)-2,3-dimethyl-6-(2-(1-methyl-1H-pyrazol-5-yl)morpholino)pyrimido[5,4-d]pyrimidin-4(3H)-one], the Emax in experiment [1] (setting [3]) was in the range of 75 to 110%. The concentration for a half-maximal effect (EC50) in experiment [1] is 100 to 1000 nM.

As for `Cc1cc([C@@H]2CN(c3nc(-c4ccc(F)cc4F)c4nc(C(F)(F)F)n(C)c(=O)c4c3F)CCO2)ccn1` (single isomer, unassigned) [Example 174A], the Emax in experiment [1] (setting [3]) is under 75%. Also, the EC50 in experiment [1] lay in the range of 10 to 100 nM.

Regarding `Cc1cc([C@@H]2CN(c3nc(-c4ccc(F)cc4F)c4nc(C(F)(F)F)n(C)c(=O)c4n3)C[C@H](C)O2)ccn1` (single isomer, unassigned) [Example 191A], in experiment [1] (setting [3]), the Emax is under 75%. In experiment [1], the EC50 was under 1 nM.

Take `Cc1cc([C@H]2CN(c3nc(-c4ccc(F)cc4F)c4nc(C(F)(F)F)n(C)c(=O)c4n3)C[C@@H](C)O2)ccn1` (single isomer, unassigned) [Example 191B]: in experiment [1] (setting [3]), the Emax fell in the range of 75 to 110%. Further, the EC50 in experiment [1] was in the range of 1 to 10 nM.

On to `Cc1cc([C@H]2CN(c3cc4c(=O)n(C)c(C)nc4c(-c4ccc(C(F)F)nc4)n3)CC(F)(F)O2)ccn1` (single isomer, unassigned) [Example 181B], for which the Emax in experiment [1] (setting [3]) is 75 to 110%. The EC50 in experiment [1] fell in the range of 1 to 10 nM.

Take `Cc1nc2c(-c3ccc(Cl)cc3F)nc(N3CCOC(c4cnn(C)n4)C3)nc2c(=O)n1C` (stereo not drawn) [Example 91, 8-(4-chloro-2-fluorophenyl)-2,3-dimethyl-6-(2-(2-methyl-2H-1,2,3-triazol-4-yl)morpholino)pyrimido[5,4-d]pyrimidin-4 (3H)-one]: in experiment [1] (setting [3]), the Emax is 75 to 110%. Besides, in experiment [1], the EC50 is 1 to 10 nM.

As for `Cc1cc([C@@H]2CN(c3nc(-c4cc(F)c(F)cc4F)c4nc(C(F)(F)F)n(C)c(=O)c4n3)CCO2)ccn1` (single isomer, unassigned) [Example 155A], the Emax in experiment [1] (setting [3]) was 75 to 110%. In experiment [1], the EC50 is under 1 nM.

As to `Cc1nc2c(-c3ccc(C#N)cc3F)nc(N3C[C@@H](c4cnn(C5CC5)c4)O[C@@H](C)C3)cc2c(=O)n1C` (single isomer, unassigned) [Example 200A], the Emax in experiment [1] (setting [3]) lay in the range of 75 to 110%. In addition, the EC50 in experiment [1] is under 1 nM.

Regarding `Cc1nc2c(-c3ccc(Cl)cc3F)nc([C@@H]3CCO[C@H](c4cnn(C5CC5)c4)C3)cc2c(=O)n1C` (single isomer, unassigned) [Example 140A], in experiment [1], the Emax was under 75% and the EC50 was 100 to 1000 nM.

For the compound `Cc1nc2c(-c3ccc(C(F)(F)F)nc3)nc(N3C[C@@H](C)O[C@@H](c4cnn(C5CC5)c4)C3)cc2c(=O)n1C` (single isomer, unassigned) [Example 184B], in experiment [1] (setting [3]), the maximal response (Emax) was under 75%. The EC50 in experiment [1] fell in the range of 10 to 100 nM.

For the compound `Cc1nc2c(-c3ccc(C(F)(F)F)cc3F)nc(N3CCO[C@H](c4cnn(C)c4)C3)cc2c(=O)n1C` (single isomer, unassigned) [Example 126B], the Emax in experiment [1] (setting [3]) is under 75%. In addition, the EC50 in experiment [1] lay within 100 to 1000 nM.

Turning to `Cc1nc2c(-c3ccc(Cl)cc3F)cc([C@@H]3CCO[C@H](c4cnn(C5CC5)c4)C3)cc2c(=O)n1C` (single isomer, unassigned) [Example 119A], in experiment [1] (setting [3]), the maximum response (Emax) is under 75%. In experiment [1], the EC50 fell in the range of 100 to 1000 nM.

Consider `Cc1nc2c(-c3ccc(C(F)(F)F)cc3F)nc(N3C[C@H](c4cnn(C)c4)OC(C)(C)C3)cc2c(=O)n1C` (single isomer, unassigned) [Example 134B], for which, in experiment [1] (setting [3]), the Emax is under 75%. In addition, the EC50 in experiment [1] lay in the range of 100 to 1000 nM.

Consider `Cc1cc([C@H]2CN(c3cc4c(=O)n(C)c(C)nc4c(-c4ccc(F)cc4F)n3)CC(C)(C)O2)ccn1` (single isomer, unassigned) [Example 159B], for which the Emax in experiment [1] (setting [3]) is under 75%. The EC50 in experiment [1] is 100 to 1000 nM.

Take `Cc1nc2c(-c3ccc(Cl)cc3F)nc(N3C[C@@H](c4cnn(C)c4)OC4(CC4)C3)cc2c(=O)n1C` (single isomer, unassigned) [Example 144A]: the Emax in experiment [1] (setting [3]) was in the range of 75 to 110%. In addition, in experiment [1], the EC50 lay within 1 to 10 nM.

In the case of `Cc1cc([C@@H]2CN(c3nc(-c4ccc(C(F)(F)F)cc4F)c4nc(C)n(C)c(=O)c4n3)CC(C)(C)O2)ccn1` (single isomer, unassigned) [Example 124A], the Emax in experiment [1] (setting [3]) lay in the range of 75 to 110%. Moreover, in experiment [1], the EC50 fell in the range of 10 to 100 nM.

For `Cc1nc2c(-c3ccc(F)cc3F)nc(N3C[C@@H](c4cnn(C5CC5)c4)O[C@@H](C)C3)cc2c(=O)n1C` (single isomer, unassigned) [Example 190A], the Emax in experiment [1] (setting [3]) lay in the range of 75 to 110%. In addition, the EC50 in experiment [1] was 10 to 100 nM.

As to `Cc1cc([C@@H]2CN(c3cc4c(=O)n(C)c(C)nc4c(-c4ccc(C(F)(F)F)cc4F)n3)CC(C)(C)O2)ccn1` (single isomer, unassigned) [Example 163A], the Emax in experiment [1] (setting [3]) is under 75%. The EC50 in experiment [1] was in the range of 100 to 1000 nM.

Take `Cn1cc(C2CN(c3nc(-c4ccc(F)cc4F)c4nc(C(F)(F)F)n(C)c(=O)c4c3F)CC3(CC3)O2)cn1` (stereo not drawn) [Example 158, 8-(2,4-difluorophenyl)-5-fluoro-3-methyl-6-(5-(1-methyl-1H-pyrazol-4-yl)-4-oxa-7-azaspiro[2.5]octan-7-yl)-2-(trifluoromethyl)pyrido[3,4-d]pyrimidin-4 (3H)-one]: in experiment [1] (setting [3]), the Emax is under 75%. Besides, the EC50 in experiment [1] was 100 to 1000 nM.

For `Cc1nc2c(-c3ccc(C(F)(F)F)cc3F)nc(N3C[C@@H](c4cnn(C5CC5)c4)O[C@@H](C)C3)nc2c(=O)n1C` (single isomer, unassigned) [Example 195A], the maximum response (Emax) in experiment [1] (setting [3]) is under 75%. In addition, the EC50 in experiment [1] lay in the range of 1 to 10 nM.

On to `Cc1nc2c(-c3cc(F)c(F)cc3F)nc(N3C[C@H](c4cnn(C)c4)OC4(CC4)C3)cc2c(=O)n1C` (single isomer, unassigned) [Example 146B], for which the Emax in experiment [1] (setting [3]) was under 75%. The EC50 in experiment [1] is over 1000 nM.

Turning to `Cc1nc2c(nc(N3CCOC(c4cnn(C)c4)C3)nc2[C@H]2CC[C@@H](C)CC2)c(=O)n1C` (stereo partly drawn) [Example 12a, 2,3-dimethyl-6-(2-(1-methyl-1H-pyrazol-4-yl)morpholino)-8-((1s,4s)-4-methylcyclohexyl)pyrimido[5,4-d]pyrimidin-4 (3H)-one], the Emax in experiment [1] (setting [3]) is 75 to 110%. Also, the EC50 in experiment [1] is over 1000 nM.
